Test results from article PMC9404985, “Development of Dicationic Bisguanidine-Arylfuran Derivatives as Potent Agents against Gram-Negative Bacteria” (Antibiotics, 2022).
pEC50: −log10 of the molar value. Where two headings read alike, the source gives them in different places.

Key:
[1] = tested on: K. pneumoniae (CCUG #58547); assay: Antibacterial activity against isolates (Omnilog, Biolog redox dye); assay type: cell-based, Klebsiella pneumoniae; conditions: for pEC50 / EC90: Klebsiella pneumoniae, CCUG58547, ca-MH broth, 24 h, 37 °C; for Selectivity index K. pneumoniae (CCUG #58547): SI = ((EC50 MCF-7 + EC50 HepG2)/2)/EC50 bacterial strain
Procedure: The antibacterial activities of eight compounds (1, 3, 4, 6, 8, 10, 16, and 17) were tested against 10 different isolates of Gram-negative bacteria from human and other sources, two E. coli (CCUG #67180 and CCUG #17620/ATCC #25922, control strain), two K. pneumoniae (CCUG #58547 and CCUG #225T), two P. aeruginosa (CCUG #17619 and CCUG #59347), two A. baumannii (CCUG #57035 and CCUG #57250), E. cloacae (CCUG #6323T), and E. hormaechei (CCUG #58962) in a 96-well plate format. […] Bacterial mass from the ten isolates grown overnight on horse blood or Mueller–Hinton agar plates was suspended in ca-MH and adjusted to a final inoculum cell density of ~5 × 10^5 CFU/mL. For all assays, Biolog redox dye A diluted 100× from the stock solution was used for measurements of all ten isolates (up to a total volume of 120 µL per well). All plates included one well per isolate with only inoculum and dye but no test compound (i.e., positive control) and one well per isolate with inoculum, dye and DMSO diluted 1667×, corresponding to the DMSO concentration in the wells with the highest concentration of test compound. All measurements were performed using the Omnilog microplate reader (Biolog, Hayward, CA, USA) where the 96-well plates were read at 15 min intervals for a total of 24 h at 37 °C.

[2] = tested on: P. aeruginosa (CCUG #17619); assay: as above; assay type: cell-based, Pseudomonas aeruginosa; conditions: for pEC50 / EC90: Pseudomonas aeruginosa, CCUG17619, ca-MH broth, 24 h, 37 °C; for Selectivity index P. aeruginosa (CCUG #17619): SI = ((EC50 MCF-7 + EC50 HepG2)/2)/EC50 bacterial strain
Procedure: (§1) The antibacterial activities of eight compounds (1, 3, 4, 6, 8, 10, 16, and 17) were tested against 10 different isolates of Gram-negative bacteria from human and other sources, two E. coli (CCUG #67180 and CCUG #17620/ATCC #25922, control strain), two K. pneumoniae (CCUG #58547 and CCUG #225T), two P. aeruginosa (CCUG #17619 and CCUG #59347), two A. baumannii (CCUG #57035 and CCUG #57250), E. cloacae (CCUG #6323T), and E. hormaechei (CCUG #58962) in a 96-well plate format. The compounds to test were 3-fold diluted in six steps in cation-adjusted Mueller-Hinton (ca-MH) broth to final concentrations spanning from 30 to 0.12 µM, i.e., a 1667–416,667 times dilution from the 50 mM stocks. Bacterial mass from the ten isolates grown overnight on horse blood or Mueller–Hinton agar plates was suspended in ca-MH and adjusted to a final inoculum cell density of ~5 × 10^5 CFU/mL. For all assays, Biolog redox dye A diluted 100× from the stock solution was used for measurements of all ten isolates (up to a total volume of 120 µL per well). All plates included one well per isolate with only inoculum and dye but no test compound (i.e., positive control) and one well per isolate with inoculum, dye and DMSO diluted 1667×, corresponding to the DMSO concentration in the wells with the highest concentration of test compound. All measurements were performed using the Omnilog microplate reader (Biolog, Hayward, CA, USA) where the 96-well plates were read at 15 min intervals for a total of 24 h at 37 °C.

[3] = tested on: B. subtilis (NBRC/ATCC #111470); assay: Antibacterial resazurin assay, laboratory strain; conditions: for pEC50 / EC90: Bacillus subtilis, ATCC111470, 18 h; for pEC50: read-out: Bsu EC50; for EC90: read-out: Bsu EC90; for Selectivity index B. subtilis: mean of MCF-7 and HepG2 EC50 over bacterial EC50, laboratory strain
[4] = tested on: P. putida (NBRC/ATCC #100650); assay: Antibacterial resazurin assay, laboratory strain; conditions: for EC90: read-out: Ppu EC90; for Selectivity index P. putida: mean of MCF-7 and HepG2 EC50 over bacterial EC50, laboratory strain
[5] = tested on: E. coli (CCUG #67180); assay: Antibacterial activity against isolates (Omnilog, Biolog redox dye); assay type: cell-based, Escherichia coli; conditions: for pEC50 / EC90: Escherichia coli, ca-MH broth, 24 h, 37 °C; for pEC50: CCUG67180; for Selectivity index E. coli (CCUG #67180): SI = ((EC50 MCF-7 + EC50 HepG2)/2)/EC50 bacterial strain; for EC90: CCUG67180, 24 h
Procedure: as §1

[6] = tested on: E. coli (CCUG #17620/ ATCC #25922); assay: as above; assay type: cell-based, Escherichia coli; conditions: for pEC50 / EC90: Escherichia coli, ca-MH broth, 24 h, 37 °C; for Selectivity index E. coli (CCUG #17620/ ATCC #25922): SI = ((EC50 MCF-7 + EC50 HepG2)/2)/EC50 bacterial strain
Procedure: as §1

[7] = tested on: P. carotovorum (NBRC/ATCC #3380); assay: Antibacterial resazurin assay, laboratory strain; conditions: for EC90: read-out: Pcar EC90; for Selectivity index P. carotovorum: mean of MCF-7 and HepG2 EC50 over bacterial EC50, laboratory strain
[8] = Pseudomonas putida, ATCC100650, 18 h, read-out: Ppu EC50, laboratory strain, 18 h, 37 °C, AlamarBlue
[9] = Pseudomonas putida, ATCC100650, 18 h
[10] = Pectobacterium carotovorum, ATCC3380, 18 h, read-out: Pcar EC50, laboratory strain, 18 h, 37 °C, AlamarBlue
[11] = Pectobacterium carotovorum, ATCC3380, 18 h

N=C(N)Nc1ccc(-c2ccc(-c3ccc(NC(=N)N)cc3)o2)cc1 [Compound 3]
pEC50 [1]: 5.25 | EC90 [1]: 8.3 µM | Selectivity index K. pneumoniae (CCUG #58547) [1]: 22.1 | pEC50 [2]: 5.05 | EC90 [2]: 11.1 µM | Selectivity index P. aeruginosa (CCUG #17619) [2]: 13.8 | pEC50 [3]: 4.95 | EC90 [3]: 22.5 µM | Selectivity index B. subtilis [3]: 11.1 | pEC50 [4, 8]: 5.08 | EC90 [4, 9]: 14.3 µM | Selectivity index P. putida [4]: 15.0 | pEC50 [5]: 5.28 | Selectivity index E. coli (CCUG #67180) [5]: 23.7 | pEC50 [6]: 5.80 | EC90 [6]: 2.2 µM | Selectivity index E. coli (CCUG #17620/ ATCC #25922) [6]: 76.6 | pEC50 [7, 10]: 4.46 | EC90 [7, 11]: 79 µM | Selectivity index P. carotovorum [7]: 3.6

N=C(N)Nc1ccc(-c2ccc(C(=O)N3CCc4cc(NC(=N)N)ccc43)o2)cc1 [Compound 17, (5-(4-guanidinophenyl)furan-2-yl)(5-guanidinoindolin-1-yl)methanone]
pEC50 [1]: < 3.70 | EC90 [1]: > 200 µM | pEC50 [2]: 4.64 | EC90 [2]: 27 µM | Selectivity index P. aeruginosa (CCUG #17619) [2]: 8.5 | pEC50 [3]: < 3.52 | EC90 [3]: > 300 µM | pEC50 [4, 8]: 4.13 | EC90 [4, 9]: 98 µM | Selectivity index P. putida [4]: 2.6 | EC90 [5]: 19.9 µM | pEC50 [5]: 4.85 | Selectivity index E. coli (CCUG #67180) [5]: 13.7 | pEC50 [6]: 4.79 | EC90 [6]: 24 µM | Selectivity index E. coli (CCUG #17620/ ATCC #25922) [6]: 11.8 | pEC50 [7, 10]: 3.89 | EC90 [7, 11]: 142 µM | Selectivity index P. carotovorum [7]: 1.5

COC(=O)c1cc(NC(=N)N)ccc1-c1ccc(-c2ccc(NC(=N)N)cc2C(=O)OC)o1 [Compound 8, 2,5-Bis(4-guanidino-2-(methylcarboxy)phenyl)furan]
pEC50 [1]: 4.99 | EC90 [1]: 13.3 µM | Selectivity index K. pneumoniae (CCUG #58547) [1]: 23.6 | pEC50 [2]: < 3.70 | EC90 [2]: > 200 µM | pEC50 [3]: 4.65 | EC90 [3]: 43.6 µM | Selectivity index B. subtilis [3]: 10.8 | pEC50 [4, 8]: 4.16 | EC90 [4, 9]: 92.1 µM | Selectivity index P. putida [4]: 3.6 | EC90 [5]: 67.5 µM | pEC50 [5]: 4.27 | Selectivity index E. coli (CCUG #67180) [5]: 4.6 | pEC50 [6]: 5.22 | EC90 [6]: 8.2 µM | Selectivity index E. coli (CCUG #17620/ ATCC #25922) [6]: 40.5 | pEC50 [7, 10]: 3.85 | EC90 [7, 11]: 158 µM | Selectivity index P. carotovorum [7]: 1.7

COc1cc(NC(=N)N)ccc1-c1ccc(-c2ccc(NC(=N)N)cc2OC)o1 [Compound 6, 2,5-Bis(4-guanidino-2-methoxyphenyl)furan]
pEC50 [1]: 4.89 | EC90 [1]: 13.7 µM | Selectivity index K. pneumoniae (CCUG #58547) [1]: 11.1 | pEC50 [2]: 4.61 | EC90 [2]: 28.7 µM | Selectivity index P. aeruginosa (CCUG #17619) [2]: 5.9 | pEC50 [3]: < 3.52 | EC90 [3]: > 300 µM | pEC50 [4, 8]: ~4.84 | EC90 [4, 9]: 19.7 µM | Selectivity index P. putida [4]: 10.1 | pEC50 ([4]; read-out: Ppu EC50, laboratory strain, 18 h, 37 °C, AlamarBlue): 4.84 | EC90 [5]: 74.4 µM | pEC50 [5]: 4.20 | Selectivity index E. coli (CCUG #67180) [5]: 2.3 | pEC50 [6]: 5.21 | EC90 [6]: 7.5 µM | Selectivity index E. coli (CCUG #17620/ ATCC #25922) [6]: 23.1 | pEC50 [7, 10]: ~4.55 | EC90 [7, 11]: 45 µM | Selectivity index P. carotovorum [7]: 5.1 | pEC50 ([7]; read-out: Pcar EC50, laboratory strain, 18 h, 37 °C, AlamarBlue): 4.55
